Measured values published in US20080167272A1, “Thalidomide metabolites and methods of use” (Auckland Uniservices Limited, priority 2005, published 2008).

Experiments:
[1] = test system: ECV304 cells; test: Inhibition of tube formation of ECV304 cells in Matrigel; format: cell-based, human
Experimental: Each well in a 24-well plate was coated with 300 μl of Matrigel (Becton Dickinson, San Jose, Calif., USA) which was allowed to solidified at 37° C. for 1 h. […] After 15-18 h of incubation at 37° C. at 5% CO2, the culture supernatant was aspirated. The cells were fixed and stained using Diff-Quick staining kit (Dade AG, Dudingen, Switzerland) according to the manufacturer's instructions. After removal of the staining solution the stained cells in each well were photographed along with a measuring ruler placed at the bottom edge of the photographing field (Olympus Camedia C-5050 professional digital camera, Olympus Optical, Tokyo, Japan). The total length of the tubes formed in the photographs was measured and divided by the area of the field (mm/mm^2).

[2] = Stability of CG in PBS at different pH (HPLC); format: physicochemical
Experimental: CG (50 μM) with 60 μM of phenacetin (as an internal standard) at pH 3.5, 6.8, 7.1, 7.4, 7.7 and 8 in 8 mm clear polyethylene starburst conical snap vials (Alltech, Deerfield, Ill., USA), was incubated in the autosampler (Waters Associates, Milford, Mass., USA) at 37° C. Aliquots (50 μl) of the solutions were then automatically loaded at 0, 6, 12, 18 and 24 hours after incubation onto a Waters Breeze chromatograph (Waters Associates, Milford, Mass., USA) which consisted of a Model 717plus autosampler, Model 1525 binary pump and Model 2487 dual wavelength absorbance detector.
Compounds were separated using a previously described (Chung et al, 2004) HPLC assay for thalidomide using a 100×4.6 mm stainless steel Luna 5 μm Phenylhexyl column (Phenomenex, Torrance, Calif., USA) and a mobile phase (Milli Q water:acetonitrile 10:1.3 v/v) that was pumped at a flow rate of 2 ml/min. Thalidomide and phenacetin were detected at ultraviolet wavelengths of 220 and 248 nm, respectively. The retention times of phenacetin and thalidomide and were 13 and 11 min, respectively. Data acquisition and integration was achieved using Breeze™ Software, Milford, Calif., USA. Each HPLC run included standard curves of thalidomide (0.6-100 μM) or CG (0.2-50 μM) with phenacetin (60 μM) as the internal standard in PBS. […] The r^2 of calibration curves of thalidomide was 0.9995, and for CG calibration curves was 0.9999. The intra-assay recovery was 90-110% (n=8) and the CV was 5-9% (n=4), while the inter-assay recovery was 96-104% (n=15) and the CV was 2-4% (n=6).
To construct the calibration curve, the peak-area ratios to the internal standard were plotted against thalidomide concentration and the best-fit straight line was obtained by linear regression analysis. The correlation coefficient of the calibration curves had r^2 values of greater than 0.9995. The thalidomide/phenacetin peak ratio was determined for all samples and the concentration of thalidomide in each sample was determined from the calibration curve.
The ratio of the area of the thalidomide peak or the CG peak to that of the phenacetin peak in the HPLC chromatographs then calculated and the concentration of thalidomide and CG was determined using the calibration curve. The percentage degradation of CG was calculated as: [1-(CG concentration after incubation/starting concentration)]×100.

[3] = test system: Colon 38 tumours; test: Colon 38 tumour growth in mice, combination with cyclophosphamide; format: in vivo; settings: CG 100 mg/kg plus cyclophosphamide 220 mg/kg; FIG. 9
Experimental: Mice (C57B1/6 bred at the Animal Resources Unit, University of Auckland, New Zealand) were implanted with Colon 38 tumours, obtained originally from the Mason Research Institute (Auckland, New Zewaland) by transferring 1 mm^3 pieces of the tumour into a subcutaneous opening in the left flank of anaesthetized mice. The mice with tumours were used for growth delay experiments when tumours had reached approximately 3-5 mm in diameter. […] Tumours were measured 2-3 times weekly after treatment and tumour volumes were calculated as 0.52×a^2×b, where a and b are the minor and major axes of the tumour. The arithmetic means and standard errors were calculated for each point, counting cured animals as having zero tumour volume, and expressed as fractions of the pre-treatment volume. Growth delay was determined as the difference in the number of days required for the tumour to reach four times the pre-treatment volume. […]

stability in solution ([2]; low pH): unstable | CG remaining in the solution after 24 h ([2]; pH 3.5, 37° C.): 21.5% | CG transformed into thalidomide ([2]; pH 3.5, 24 h incubation): 42% | thalidomide in CG solutions after incubation ([2]; pH 6.8, 7.1, 7.4, 7.7 or 8): not detected | CG remaining in solution after 24 h ([2]; pH 6.8, 37° C.): 81.75% | CG remaining in solution after 24 h ([2]; pH 7.1, 37° C.): 50.1% | CG remaining in solution after 24 h ([2]; pH 7.4, 37° C.): 46.6% | CG remaining in the solution after 24 h ([2]; pH 7.7, 37° C.): 8.6% | CG remaining in the solution after 24 h ([2]; pH 8, 37° C.): 0% | stability in solution ([2]; pHs between 6.8-7.4): stable | stability compared with thalidomide ([2]; physiological conditions): more stable than thalidomide | CG degraded ([2]; physiological conditions, after 6 h): 1.3-20%
SMILES: O=C1CCC(NC(=O)c2ccccc2C(=O)O)C(=O)N1 (stereo not shown) [CG, 2-{[(2,6-Dioxo-3-piperidinyl)amino]carbonyl}benzoic acid]
inhibition of tube formation ([1]; 250 μg/ml, FIGS. 6 & 7): Near complete inhibition | inhibition at 2 µg/mL ([1]; Homo sapiens, ECV-304, lowest concentration tested, 2 μg/ml, FIG. 7): 38 to 41% | angiogenesis inhibition in vitro compared with thalidomide ([1]; human cell system, FIGS. 6 & 7): as active as thalidomide | tumour size at day 15 after treatment, combination vs monotherapies [3]: significantly smaller than those treated with each of the monotherapies
